# Laboratory results as given in US20070026465A1, “Method for detecting GAD65 autoreactive T cells newly diagnosed type1 diabetic patients and in the prediabetic period” (priority 2005, published 2007).
# Tested on: PBMC of newly diagnosed T1D patients
# Assay: GAD65 HLA class I tetramer staining and flow cytometry of stimulated PBMC, T1D patients
# Format: cell-based, human
sequence,measurement,value
VMNILLQYV [GAD65 peptide],% of CD3+/CD8+/GAD65 reactive T cells (specificity of the response),6.39%
